From patent publication US11866450B2, “Modulators of Cystic Fibrosis Transmembrane Conductance regulator, pharmaceutical compositions, methods of treatment, and process for making the modulators” (priority 2018, dated 2024)

Target: CFTR-mediated chloride transport (Homo sapiens, UniProt P13569)
Type: cell-based
Conditions: enteroid cells incubated with test compound 18-24 hours, acute 10 μM forskolin and 300 nM Compound III; for Max. Activity: % of chloride transport with 3 μM Compound A, 3 μM Compound II and 300 nM acute Compound III triple combination control
In short: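 Membrane-potential fluorescence AUC over 15 min quantified CFTR chloride transport after acute forskolin (10 μM), IBMX (100 μM) and Compound III (300 nM) in chloride-free buffer. Human enteroid cells were pretreated with compound for 18–24 h; % Activity is relative to 3 μM Compound A + 3 μM Compound II + 300 nM Compound III.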

CFTR-mediated chloride transport, sequence (P13569 whole entry, looked up): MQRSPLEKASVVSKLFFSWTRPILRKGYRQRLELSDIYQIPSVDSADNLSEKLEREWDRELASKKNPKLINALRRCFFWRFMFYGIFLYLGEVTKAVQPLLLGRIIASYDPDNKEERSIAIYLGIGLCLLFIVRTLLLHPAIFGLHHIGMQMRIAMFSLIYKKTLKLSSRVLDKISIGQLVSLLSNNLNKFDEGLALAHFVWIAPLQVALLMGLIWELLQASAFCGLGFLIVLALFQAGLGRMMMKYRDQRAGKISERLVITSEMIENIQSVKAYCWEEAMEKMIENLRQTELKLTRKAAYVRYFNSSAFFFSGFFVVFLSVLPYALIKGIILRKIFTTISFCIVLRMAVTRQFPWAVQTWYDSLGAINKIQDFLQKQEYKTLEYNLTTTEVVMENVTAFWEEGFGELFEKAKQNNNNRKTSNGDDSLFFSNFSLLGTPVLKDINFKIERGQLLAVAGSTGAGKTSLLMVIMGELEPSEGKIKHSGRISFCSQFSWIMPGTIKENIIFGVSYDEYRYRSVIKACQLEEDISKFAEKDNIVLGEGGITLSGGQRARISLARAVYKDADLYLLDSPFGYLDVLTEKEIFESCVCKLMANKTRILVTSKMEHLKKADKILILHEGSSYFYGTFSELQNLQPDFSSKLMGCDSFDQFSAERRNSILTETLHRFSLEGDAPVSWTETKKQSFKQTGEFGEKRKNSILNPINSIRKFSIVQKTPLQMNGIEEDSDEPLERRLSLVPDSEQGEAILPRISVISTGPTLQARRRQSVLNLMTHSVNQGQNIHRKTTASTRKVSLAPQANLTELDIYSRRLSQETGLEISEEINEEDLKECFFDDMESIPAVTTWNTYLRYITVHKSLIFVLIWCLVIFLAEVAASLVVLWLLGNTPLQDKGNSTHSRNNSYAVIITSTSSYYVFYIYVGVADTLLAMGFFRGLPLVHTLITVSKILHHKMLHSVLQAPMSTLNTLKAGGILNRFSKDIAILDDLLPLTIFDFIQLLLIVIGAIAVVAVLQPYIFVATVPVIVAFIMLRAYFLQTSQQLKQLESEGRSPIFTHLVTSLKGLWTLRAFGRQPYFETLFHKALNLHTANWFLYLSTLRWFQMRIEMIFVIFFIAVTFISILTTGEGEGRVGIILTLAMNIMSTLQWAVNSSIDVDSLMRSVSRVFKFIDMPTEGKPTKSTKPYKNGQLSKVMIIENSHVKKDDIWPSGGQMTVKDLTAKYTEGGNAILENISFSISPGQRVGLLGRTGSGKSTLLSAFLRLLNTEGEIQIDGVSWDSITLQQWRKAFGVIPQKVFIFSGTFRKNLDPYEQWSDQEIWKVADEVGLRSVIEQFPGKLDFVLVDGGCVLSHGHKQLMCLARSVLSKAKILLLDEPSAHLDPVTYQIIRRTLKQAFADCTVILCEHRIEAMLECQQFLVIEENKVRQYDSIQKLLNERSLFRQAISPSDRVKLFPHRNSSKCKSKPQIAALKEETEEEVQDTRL

Structure (SMILES)	EC50	Max. Activity
CC1(C)C[C@H]2CCCOc3ccc(cc3)S(=O)(=O)NC(=O)c3ccc(-n4ccc(OCCC5(C(F)(F)F)CC5)n4)nc3N1C2 (single isomer, unassigned) [Compound 100, 12,12-dimethyl-8-(3-{2-[1-(trifluoromethyl)cyclopropyl]ethoxy}-1H-pyrazol-1-yl)-18-oxa-2λ^6-thia-3,9,11-triazatetracyclo[17.2.2.111,14.05,10]tetracosa-1(21),5,7,9,19,22-hexaene-2,2,4-trione]	> 3000 nM	+ (+ is <30%)
CC1(C)C[C@H]2CCCCOc3ccc(cn3)S(=O)(=O)NC(=O)c3ccc(-n4ccc(OCCC5(C(F)(F)F)CC5)n4)nc3N1C2 (single isomer, unassigned) [Compound 103, 12,12-dimethyl-8-(3-{2-[1-(trifluoromethyl)cyclopropyl]ethoxy}-1H-pyrazol-1-yl)-19-oxa-2λ^6-thia-3,9,11,21-tetraazatetracyclo[18.2.2.111,14.05,10]pentacosa-1(23),5,7,9,20(24),21-hexaene-2,2,4-trione]	< 1000 nM	++ (++ is 30-60%)
CC1(C)C[C@H]2CCCCOc3ccc(cn3)S(=O)(=O)NC(=O)c3ccc(-n4ccc(OCCC5(C(F)(F)F)CC5)n4)nc3N1C2 (single isomer, unassigned) [Compound 104, 12,12-dimethyl-8-(3-{2-[1-(trifluoromethyl)cyclopropyl]ethoxy}-1H-pyrazol-1-yl)-19-oxa-2λ^6-thia-3,9,11,21-tetraazatetracyclo[18.2.2.111,14.05,10]pentacosa-1(23),5,7,9,20(24),21-hexaene-2,2,4-trione]	> 3000 nM	+ (+ is <30%)
CC1(C)C[C@H]2CCCNc3cccc(n3)S(=O)(=O)NC(=O)c3ccc(-n4ccc(OCC5C6(CC6)C56CC6)n4)nc3N1C2 (single isomer, unassigned) [Compound 106, 8-[3-({dispiro[2.0.2.1]heptan-7-yl}methoxy)-1H-pyrazol-1-yl]-12,12-dimethyl-2λ^6-thia-3,9,11,18,23-pentaazatetracyclo[17.3.1.111,14.05,10]tetracosa-1(22),5,7,9,19(23),20-hexaene-2,2,4-trione]	< 1000 nM	+++ (+++ is >60%)
CC1(C)C[C@H]2CCCNc3cccc(n3)S(=O)(=O)NC(=O)c3ccc(-n4ccc(OCC5C6(CC6)C56CC6)n4)nc3N1C2 (single isomer, unassigned) [Compound 107, 8-[3-({dispiro[2.0.2.1]heptan-7-yl}methoxy)-1H-pyrazol-1-yl]-12,12-dimethyl-2λ^6-thia-3,9,11,18,23-pentaazatetracyclo[17.3.1.111,14.05,10]tetracosa-1(22),5,7,9,19(23),20-hexaene-2,2,4-trione]	< 1000 nM	+++ (+++ is >60%)
Cc1c2cnn1CCC[C@@H]1CN(c3nc(-n4ccc(OCCC5(C(F)(F)F)CC5)n4)ccc3C(=O)NS2(=O)=O)C(C)(C)C1 (single isomer, unassigned) [Compound 111]	< 1000 nM	+++ (+++ is >60%)
Cc1c2cnn1CCC[C@@H]1CN(c3nc(-n4ccc(OCCC5(C(F)(F)F)CC5)n4)ccc3C(=O)NS2(=O)=O)C(C)(C)C1 (single isomer, unassigned) [Compound 113]	1000 to 3000 nM	++ (++ is 30-60%)
Cc1ccc2nc1NCCC[C@H]1CN(c3nc(-n4ccc(OCCC5(C(F)(F)F)CC5)n4)ccc3C(=O)NS2(=O)=O)C(C)(C)C1 (single isomer, unassigned) [Compound 114, 12,12,20-trimethyl-8-(3-{2-[1-(trifluoromethyl)cyclopropyl]ethoxy}-1H-pyrazol-1-yl)-2λ^6-thia-3,9,11,18,23-pentaazatetracyclo[17.3.1.111,14.05,10]tetracosa-1(23),5(10),6,8,19,21-hexaene-2,2,4-trione]	> 3000 nM	+ (+ is <30%)
Cc1ccc2nc1NCCC[C@H]1CN(c3nc(-n4ccc(OCCC5(C(F)(F)F)CC5)n4)ccc3C(=O)NS2(=O)=O)C(C)(C)C1 (single isomer, unassigned) [Compound 115, 12,12,20-trimethyl-8-(3-{2-[1-(trifluoromethyl)cyclopropyl]ethoxy}-1H-pyrazol-1-yl)-2λ^6-thia-3,9,11,18,23-pentaazatetracyclo[17.3.1.111,14.05,10]tetracosa-1(23),5(10),6,8,19,21-hexaene-2,2,4-trione]	< 1000 nM	+++ (+++ is >60%)
CC1(C)CC[C@H]2CCNc3cccc(n3)S(=O)(=O)NC(=O)c3ccc(-n4ccc(OCCC5(C(F)(F)F)CC5)n4)nc3N21 (single isomer, unassigned) [Compound 116, 8,8-Dimethyl-12-(3-{2-[1-(trifluoromethyl)cyclopropyl]ethoxy}-1H-pyrazol-1-yl)-18λ^6-thia-2,9,11,17,23-pentaazatetracyclo[17.3.1.05,9.010,15]tricosa-1(23),10(15),11,13,19,21-hexaene-16,18,18-trione]	< 1000 nM	++ (++ is 30-60%)
CC1(C)CC[C@H]2CCNc3cccc(n3)S(=O)(=O)NC(=O)c3ccc(-n4ccc(OCCC5(C(F)(F)F)CC5)n4)nc3N21 (single isomer, unassigned) [Compound 117, 8,8-dimethyl-12-(3-{2-[1-(trifluoromethyl)cyclopropyl]ethoxy}-1H-pyrazol-1-yl)-18λ^6-thia-2,9,11,17,23-pentaazatetracyclo[17.3.1.05,9.010,15]tricosa-1(23),10(15),11,13,19,21-hexaene-16,18,18-trione]	< 1000 nM	++ (++ is 30-60%)
CC1(C)C[C@H]2CCCn3cc(cn3)S(=O)(=O)NC(=O)c3ccc(-n4ccc(OCCC5(C(F)(F)F)CC5)n4)nc3N1C2 (single isomer, unassigned) [Compound 118, 20,20-Dimethyl-4-(3-{2-[1-(trifluoromethyl)cyclopropyl]ethoxy}-1H-pyrazol-1-yl)-10λ^6-thia-1,3,9,13,14-pentaazatetracyclo[16.2.1.111,14.02,7]docosa-2,4,6,11(22),12-pentaene-8,10,10-trione]	1000 to 3000 nM	+ (+ is <30%)
CC1(C)C[C@H]2CCCn3cc(cn3)S(=O)(=O)NC(=O)c3ccc(-n4ccc(OCCC5(C(F)(F)F)CC5)n4)nc3N1C2 (single isomer, unassigned) [Compound 119, 20,20-dimethyl-4-(3-{2-[1-(trifluoromethyl)cyclopropyl]ethoxy}-1H-pyrazol-1-yl)-10λ^6-thia-1,3,9,13,14-pentaazatetracyclo[16.2.1.111,14.02,7]docosa-2,4,6,11(22),12-pentaene-8,10,10-trione]	< 1000 nM	+++ (+++ is >60%)
CC1(C)C[C@H]2CCCCNc3ccc(cn3)S(=O)(=O)NC(=O)c3ccc(-n4ccc(OCC5C6(CC6)C56CC6)n4)nc3N1C2 (single isomer, unassigned) [Compound 120, 8-[3-({dispiro[2.0.2.1]heptan-7-yl}methoxy)-1H-pyrazol-1-yl]-12,12-dimethyl-2λ^6-thia-3,9,11,19,21-pentaazatetracyclo[18.2.2.111,14.05,10]pentacosa-1(23),5,7,9,20(24),21-hexaene-2,2,4-trione]	< 1000 nM	++ (++ is 30-60%)
CC1(C)C[C@H]2CCCCNc3ccc(cn3)S(=O)(=O)NC(=O)c3ccc(-n4ccc(OCC5C6(CC6)C56CC6)n4)nc3N1C2 (single isomer, unassigned) [Compound 121, 8-[3-({dispiro[2.0.2.1]heptan-7-yl}methoxy)-1H-pyrazol-1-yl]-12,12-dimethyl-2λ^6-thia-3,9,11,19,21-pentaazatetracyclo[18.2.2.111,14.05,10]pentacosa-1(23),5,7,9,20(24),21-hexaene-2,2,4-trione]	< 1000 nM	+++ (+++ is >60%)
CC1(C)CC[C@H]2CCCNc3cccc(n3)S(=O)(=O)NC(=O)c3ccc(-n4ccc(OCC5C6(CC6)C56CC6)n4)nc3N21 (single isomer, unassigned) [Compound 124, 8-[3-({dispiro[2.0.2.1]heptan-7-yl}methoxy)-1H-pyrazol-1-yl]-12,12-dimethyl-2λ^6-thia-3,9,11,19,24-pentaazatetracyclo[18.3.1.05,10.011,15]tetracosa-1(23),5(10),6,8,20(24),21-hexaene-2,2,4-trione]	< 1000 nM	+++ (+++ is >60%)
CC1(C)CC[C@H]2CCCNc3cccc(n3)S(=O)(=O)NC(=O)c3ccc(-n4ccc(OCC5C6(CC6)C56CC6)n4)nc3N21 (single isomer, unassigned) [Compound 125, 8-[3-({Dispiro[2.0.2.1]heptan-7-yl}methoxy)-1H-pyrazol-1-yl]-12,12-dimethyl-2λ^6-thia-3,9,11,19,24-pentaazatetracyclo[18.3.1.05,10.011,15]tetracosa-1(23),5(10),6,8,20(24),21-hexaene-2,2,4-trione]	< 1000 nM	+ (+ is <30%)
CC(C)(C)CC[C@H]1CCN(c2ccc3c(n2)N2C[C@@H](CCCNc4cccc(n4)S(=O)(=O)NC3=O)CC2(C)C)C1=O (single isomer, unassigned) [Compound 126]	< 1000 nM	++ (++ is 30-60%)
CC(C)(C)CC[C@H]1CCN(c2ccc3c(n2)N2C[C@@H](CCCNc4cccc(n4)S(=O)(=O)NC3=O)CC2(C)C)C1=O (single isomer, unassigned) [Compound 127]	< 1000 nM	+++ (+++ is >60%)
CC1(C)C[C@H]2CCCCn3cc(cn3)S(=O)(=O)NC(=O)c3ccc(-n4ccc(OCCC5(C(F)(F)F)CC5)n4)nc3N1C2 (single isomer, unassigned) [Compound 134, 21,21-Dimethyl-4-(3-{2-[1-(trifluoromethyl)cyclopropyl]ethoxy}-1H-pyrazol-1-yl)-10λ^6-thia-1,3,9,13,14-pentaazatetracyclo[17.2.1.111,14.02,7]tricosa-2,4,6,11(23),12-pentaene-8,10,10-trione]	< 1000 nM	+ (+ is <30%)
